From US20220193064A1, “MEDICAMENT FOR TREATING CANCER” (CHIOME BIOSCIENCE INC., priority 2019, published 2022)
Like-named read-outs stand apart in the source and are kept apart here.

B1: HuBA-1-3D antibody: humanized anti-hDLK-1 antibody from WO2014/054820; H chain V region SEQ ID NO: 36, L chain V region SEQ ID NO: 46; GlymaxX produced (antibody, V domains shown)
VH: QVQLVQSGAEVKKPGASVKVSCKGSGYTFTDYAMHWVRQAPGQGLEWIGVISTYYGNTNYNQKFKGKATMTVDKSTSTAYMELRSLRSDDTAVYYCARGGLREYYYAMDYWGQGTMVTVSS
VL: DIVMTQSPDSLAVSLGERATINCKSSQSLLNSSNQKNYLAWYQQKPGQPPKLLVYFASTRESGVPDRFSGSGSGTDFTLTISSLQAEDVAVYYCQQHYSTPPTFGQGTKLEIK
modifications: GlymaxX glycoengineered
notes: humanized anti-hDLK-1 antibody from WO2014/054820; GlymaxX produced

Key:
HepG2 xenograft model [1] = assay: combined effect of lenvatinib and anti-hDLK-1 antibody on tumorigenesis inhibitory activity, HepG2 xenograft model; format: in vivo, NOD/ShiJic-scidJcl mice
Excerpt: Using a HepG2 xenograft model, lenvatinib mesylate and anti-hDLK-1 antibody were studied for their combined effect on tumorigenesis inhibitory activity.
(§1) The lenvatinib mesylate used here was commercially available (hereinafter simply referred to as “lenvatinib” in this example). The anti-hDLK-1 antibody used here was “HuBA-1-3D-1-A24G/T73K antibody” found in WO2014/054820 (hereinafter simply referred to as “HuBA-1-3D antibody” in this example), and DNA encoding this antibody protein was constructed in accordance with the procedures shown in WO2014/054820 (see the Example section in the specification), followed by production and preparation of this antibody protein in host cells using the GlymaxX® technology (ProBioGen AG; see https://www.probiogen.de/genetic-glyco-engineering-adcc-glymaxx.html). It should be noted that the HuBA-1-3D-1-A24G/T73K antibody used here has an H chain V region consisting of the amino acid sequence shown in SEQ ID NO: 36 and an L chain V region consisting of the amino acid sequence shown in SEQ ID NO: 46.
5×10^6 HepG2 cells were transplanted subcutaneously into the right flank of female NOD/ShiJic-scidJcl mice at 7 weeks of age (Day 0). At the stage where the mean tumor volume reached around 100 mm^3 (Day 10), these mice were divided into the following groups: the control group (N=8, 118.4±15 6 mm^3), the group receiving lenvatinib (10 mg/kg body weight) (N=8, 118.8±15.2 mm^3), the group receiving HuBA-1-3D antibody (1 mg/kg body weight) (N=8, 119.8±12.9 mm^3), and the group receiving both lenvatinib (10 mg/kg body weight) and HuBA-1-3D antibody (1 mg/kg body weight) (N=8, 119.7±13.4 mm^3) (hereinafter referred to as the group receiving lenvatinib+HuBA-1-3D antibody). For a period of 12 days starting from Day 10, HuBA-1-3D antibody was administered twice a week (4 times in total; Days 10, 13, 17 and 21), and lenvatinib was administered 5 times a week (administration for 5 days and withdrawal for 2 days) (10 times in total; Days 10, 11, 12, 13, 14, 17, 18, 19, 20 and 21). The tumor volume was measured at a frequency of twice a week, and an animal whose tumor volume reached 1500 mm^3 was excluded from observation.

Hep3B xenograft model [2] = assay: sensitivity to lenvatinib in Hep3B xenograft therapeutic model; format: in vivo, NOD/SCID mice; settings: Day 29; for tumor volume (mean±standard deviation): 5 times a week, N=8; for tumor volume ratio (T/C) relative to the vehicle group: P<0.05
Excerpt: (§2) Two cell lines (Hep3B and HepG2) derived from human hepatocellular carcinoma were compared for their sensitivity to lenvatinib mesylate (commercially available; hereinafter simply referred to as “lenvatinib” in this example) in xenograft therapeutic models.
In a Hep3B xenograft model, NOD/SCID mice were transplanted with the cells subcutaneously, and then divided into groups of 8 mice each at the time when the mean tumor volume exceeded 100 mm^3 (Day 14), and administration was started on the same day. The administration was conducted at a dose of 10 μL/g per mouse body weight via the oral route with an oral sonde, 5 times a week (administration for 5 days and withdrawal for 2 days) (12 times in total; Days 14, 15, 16, 17, 18, 21, 22, 23, 24, 25, 28 and 29) until the final day of the test. The tumor volume (mean±standard deviation) at 29 days after transplantation (Day 29; the final day of the test) was 1050.3±553.8 mm^3 in the group receiving vehicle (water for injection) (N=8), 400.9±160.9 mm^3 in the group receiving lenvatinib (3 mg/kg) (N=8), 200.2±133.3 mm^3 in the group receiving lenvatinib (10 mg/kg) (N=8), and 136.2±33.8 mm^3 in the group receiving lenvatinib (30 mg/kg) (N=8). The tumor volume ratio (T/C) relative to the vehicle group on Day 29 was 38.2% (P<0.05), 19.1% (P<0.05) and 13.0% (P<0.05), respectively, in the groups receiving lenvatinib (3, 10 and 30 mg/kg) (FIG. 3A).

[3] = system: unresectable hepatocellular carcinoma; settings: cited from earlier work
HepG2 xenograft model [4] = assay: sensitivity to lenvatinib in HepG2 xenograft therapeutic model; format: in vivo, NOD/SCID mice; settings: Day 28; for tumor volume (mean±standard deviation): 5 times a week, N=8; for tumor volume ratio (T/C) relative to the vehicle group: P<0.05
Excerpt: as §2
NOD/SCID mice were transplanted with the cells subcutaneously, and then divided into groups of 8 mice each at the time when the mean tumor volume exceeded 100 mm^3 (Day 10), and administration was started on the same day. The administration was conducted at a dose of 10 μL/g per mouse body weight via the oral route with an oral sonde, 5 times a week (administration for 5 days and withdrawal for 2 days) (14 times in total; Days 10, 11, 12, 13, 14, 17, 18, 19, 20, 21, 24, 25, 26 and 27) until the day before the final day of the test. The tumor volume (mean±standard deviation) at 28 days after transplantation (Day 28; the final day of the test) was 1163.0±205.1 mm^3 in the group receiving vehicle (water for injection) (N=8), 892.5±220.7 mm^3 in the group receiving lenvatinib (3 mg/kg) (N=8), 506.8±215.7 mm^3 in the group receiving lenvatinib (10 mg/kg) (N=8), and 380.0±146.8 mm^3 in the group receiving lenvatinib (30 mg/kg) (N=8). The tumor volume ratio (T/C) relative to the vehicle group on Day 28 was 76.7% (P<0.05), 43.6% (P<0.05) and 32.7% (P<0.05), respectively, in the groups receiving lenvatinib (3, 10 and 30 mg/kg) (FIG. 3B).

Hep3B xenograft model [5] = assay: combined effect of lenvatinib and anti-hDLK-1 antibody on tumorigenesis inhibitory activity, Hep3B xenograft model; format: in vivo, NOD/ShiJic-scidJcl mice; settings: for tumor weight: tumors collected on final day of observation (Day 38)
Excerpt: Using a Hep3B xenograft model, lenvatinib mesylate and anti-hDLK-1 antibody were studied for their combined effect on tumorigenesis inhibitory activity.
as §1
1×10^6 Hep3B cells were transplanted subcutaneously into the right flank of female NOD/ShiJic-scidJcl mice at 6 to 7 weeks of age (Day 0). At the stage where the mean tumor volume reached around 100 mm^3 (Day 14), these mice were divided into the following groups: the control group (N=8, 103.5±18.1 mm^3), the group receiving lenvatinib (3 mg/kg body weight) (N=8, 102.8±16.8 mm^3), the group receiving HuBA-1-3D antibody (1 mg/kg body weight) (N=8, 102.7±15.0 mm^3), and the group receiving both lenvatinib (3 mg/kg body weight) and HuBA-1-3D antibody (1 mg/kg body weight) (N=8, 102.5±12.5 mm^3) (hereinafter referred to as the group receiving lenvatinib+HuBA-1-3D antibody). For a period of 12 days starting from Day 14, HuBA-1-3D antibody was administered twice a week (4 times in total; Days 14, 18, 22 and 25), and lenvatinib was administered 5 times a week (administration for 5 days and withdrawal for 2 days) (10 times in total; Days 14, 15, 16, 17, 18, 21, 22, 23, 24 and 25). The tumor volume was measured at a frequency of twice a week, and an animal whose tumor volume reached 1500 mm^3 was excluded from observation.

[6] = Day 21 (final day of administration), lenvatinib 10 mg/kg 5 times a week, HuBA-1-3D antibody 1 mg/kg twice a week, N=8
[7] = Day 31 (10 days after completion of administration), lenvatinib 10 mg/kg, HuBA-1-3D antibody 1 mg/kg, N=8
[8] = Day 34 (13 days after completion of administration), lenvatinib 10 mg/kg, HuBA-1-3D antibody 1 mg/kg
[9] = primary therapeutic agent, unresectable hepatocellular carcinoma, whole treatment group
[10] = Day 25 (final day of administration), lenvatinib 3 mg/kg 5 times a week, HuBA-1-3D antibody 1 mg/kg twice a week, N=8
[11] = Day 31 (6 days after completion of administration), lenvatinib 3 mg/kg, HuBA-1-3D antibody 1 mg/kg
[12] = Day 38 (13 days after completion of administration), lenvatinib 3 mg/kg, HuBA-1-3D antibody 1 mg/kg
[13] = lenvatinib 3 mg/kg, HuBA-1-3D antibody 1 mg/kg

| Molecule | tumor volume (HepG2 xenograft model [1]; [6]) [mm^3] | tumor volume (HepG2 xenograft model [1]; [7]) [mm^3] | tumor volume (HepG2 xenograft model [1]; [8]) [mm^3] | efficacy [3, 9] [%] | tumor volume (Hep3B xenograft model [5]; [10]) [mm^3] | tumor volume (Hep3B xenograft model [5]; [11]) [mm^3] | tumor volume (Hep3B xenograft model [5]; [12]) [mm^3] | tumor weight (Hep3B xenograft model [5]; [13]) [mg] | other results |
| --- | --- | --- | --- | --- | --- | --- | --- | --- | --- |
| COc1cc2nccc(Oc3ccc(NC(=O)NC4CC4)c(Cl)c3)c2cc1C(N)=O [lenvatinib, 4-[3-chloro-4-(cyclopropylcarbamoylamino)phenoxy]-7-methoxy-quinoline-6-carboxamide] | 326.2±188.7 | 817.4±583.4 | 796.2±461.7 | 40.6 | 268.1±175.7 | 572.2±456.0 | 1148.5±591.0 | 841.1 ± 515.8 | animals sacrificed whose tumor volume exceeded 1500 mm^3 (HepG2 xenograft model [1]; Day 31, lenvatinib 10 mg/kg): one of the 8 animals; tumor volume (mean±standard deviation) (Hep3B xenograft model [2]; lenvatinib 3 mg/kg oral): 400.9±160.9 mm^3; tumor volume ratio (T/C) relative to the vehicle group (Hep3B xenograft model [2]; lenvatinib 3 mg/kg): 38.2%; tumor volume (mean±standard deviation) (Hep3B xenograft model [2]; lenvatinib 10 mg/kg oral): 200.2±133.3 mm^3; tumor volume ratio (T/C) relative to the vehicle group (Hep3B xenograft model [2]; lenvatinib 10 mg/kg): 19.1%; tumor volume (mean±standard deviation) (Hep3B xenograft model [2]; lenvatinib 30 mg/kg oral): 136.2±33.8 mm^3; tumor volume ratio (T/C) relative to the vehicle group (Hep3B xenograft model [2]; lenvatinib 30 mg/kg): 13.0%; efficacy ([3]; Japanese population (of 81 patients) assigned to the lenvatinib group): 46.9%; tumor volume (mean±standard deviation) (HepG2 xenograft model [4]; lenvatinib 3 mg/kg oral): 892.5±220.7 mm^3; tumor volume ratio (T/C) relative to the vehicle group (HepG2 xenograft model [4]; lenvatinib 3 mg/kg): 76.7%; tumor volume (mean±standard deviation) (HepG2 xenograft model [4]; lenvatinib 10 mg/kg oral): 506.8±215.7 mm^3; tumor volume ratio (T/C) relative to the vehicle group (HepG2 xenograft model [4]; lenvatinib 10 mg/kg): 43.6%; tumor volume (mean±standard deviation) (HepG2 xenograft model [4]; lenvatinib 30 mg/kg oral): 380.0±146.8 mm^3; tumor volume ratio (T/C) relative to the vehicle group (HepG2 xenograft model [4]; lenvatinib 30 mg/kg): 32.7% |
| CNC(=O)c1cc(Oc2ccc(NC(=O)Nc3ccc(Cl)c(C(F)(F)F)c3)cc2)ccn1 [sorafenib] | – | – | – | 12.4 | – | – | – | – | – |
| B1 | 116.4±42.4 | 394.0±169.8 | 584.1±241.9 | – | 144.6±111.2 | 92.9±79.3 | 402.3±364.4 | 392.3 ± 412.9 | – |
